Test in all cases: relative viability (nuclei count vs DMSO), 5 days (fraction); higher = more cells survive
Compound in the assay “BAY61-3606 + Bortezomib”: COC1=C(C=C(C=C1)C2=CC3=NC=CN3C(=N2)NC4=C(C=CC=N4)C(=O)N)OC [BAY61-3606] + CC(C)C[C@H](NC(=O)[C@H](Cc1ccccc1)NC(=O)c1cnccn1)B(O)O [Bortezomib] (partner 0.002 µM)
In a few lines: (§1)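 Nuclei were stained with Hoechst during a one-step fixation (final 0.05% Triton X-100, 1% formaldehyde, 1 ug/ml Hoechst) carried out 5 days after dosing, then counted on 4× images. The cells, lung cancer lines in 1536-well plates, had been dosed by pin tool the day after seeding with one drug alone or a fixed anchor-drug dose plus five library-drug doses (not always all listed) in √10 steps. Relative viability is the nuclei count in treated wells divided by that in vehicle wells, and each value is the median of duplicate plates.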

Compound in the assay “BAY61-3606 + Vorinostat”: COC1=C(C=C(C=C1)C2=CC3=NC=CN3C(=N2)NC4=C(C=CC=N4)C(=O)N)OC [BAY61-3606] + O=C(CCCCCCC(=O)Nc1ccccc1)NO [Vorinostat] (partner 1 µM)
Summed up: as §1

Compound in the assay “Doxorubicin + OSI-027”: COc1cccc2c1C(=O)c1c(O)c3c(c(O)c1C2=O)C[C@@](O)(C(=O)CO)C[C@@H]3O[C@H]1C[C@H](N)[C@H](O)[C@H](C)O1 [Doxorubicin] + COc1cccc2cc(-c3nc([C@H]4CC[C@H](C(=O)O)CC4)n4ncnc(N)c34)[nH]c12 [OSI-027] (partner 0.5 µM)
Summed up:
as §1

Compound in the assay “Doxorubicin + Decitabine”: COc1cccc2c1C(=O)c1c(O)c3c(c(O)c1C2=O)C[C@@](O)(C(=O)CO)C[C@@H]3O[C@H]1C[C@H](N)[C@H](O)[C@H](C)O1 [Doxorubicin] + Nc1ncn([C@H]2C[C@H](O)[C@@H](CO)O2)c(=O)n1 [Decitabine] (partner 2 µM)
Summed up:
as §1

As to UMC-11, the relative viability was 0.947 in the assay with BAY61-3606 + Bortezomib (first compound 0.02 µM); 0.616 with BAY61-3606 + Bortezomib (first compound 0.06325 µM); 0.643 with BAY61-3606 + Bortezomib (first compound 0.2 µM); 0.849 with BAY61-3606 + Bortezomib (first compound 0.6325 µM); 0.734 with BAY61-3606 + Bortezomib (first compound 2 µM); 0.43 with BAY61-3606 + Vorinostat (first compound 0.02 µM). Moreover, the relative viability with BAY61-3606 + Vorinostat (first compound 0.06325 µM) was 0.385; with BAY61-3606 + Vorinostat (first compound 0.2 µM) it was 0.436; in the assay with BAY61-3606 + Vorinostat (first compound 0.6325 µM), 0.465; with BAY61-3606 + Vorinostat (first compound 2 µM), 0.326; with Doxorubicin + OSI-027 (first compound 0.001 µM), 0.514; with Doxorubicin + OSI-027 (first compound 0.003162 µM), 0.425. Further, the relative viability with Doxorubicin + OSI-027 (first compound 0.01 µM) worked out at 0.482; with Doxorubicin + OSI-027 (first compound 0.03162 µM) it was 0.436; with Doxorubicin + OSI-027 (first compound 0.1 µM) it was 0.368; with Doxorubicin + Decitabine (first compound 0.001 µM), 0.641; with Doxorubicin + Decitabine (first compound 0.003162 µM), 0.497; with Doxorubicin + Decitabine (first compound 0.01 µM), 0.619. Moreover, the relative viability with Doxorubicin + Decitabine (first compound 0.03162 µM) is 0.385; with Doxorubicin + Decitabine (first compound 0.1 µM), 0.41.

Source of the values: the supplement of paper PMC10307832.
